Laboratory results as given in ChEMBL document CHEMBL3286339, “Synthesis and in vivo SAR study of indolin-2-one-based multi-targeted inhibitors as potential anticancer agents” (Eur J Med Chem, 2014).

Legend:
[1] = target: Serine/threonine-protein kinase Chk1 (Homo sapiens) (UniProt O14757); assay: Inhibition of CHK1 (unknown origin) at 1 uM relative to control
[2] = target: T1, Platelet-derived growth factor receptor beta (Homo sapiens, UniProt P09619); assay: Binding affinity to PDGFR-beta (unknown origin)
[3] = target: Receptor-type tyrosine-protein kinase FLT3 (Homo sapiens) (UniProt P36888); assay: Inhibition of FLT3 (unknown origin) at 1 uM relative to control
Mus musculus [4] = assay: Toxicity in BALB/c nude mouse xenografted with human HT-29 cells assessed as hematuria at 80 mg/kg/day administered qd measured up to day 21; type: organism-based; conditions: in vivo
[5] = target: Macrophage colony-stimulating factor 1 receptor (Homo sapiens, UniProt P07333); assay: Binding affinity to FMS (unknown origin)
[6] = target: T2, Fibroblast growth factor receptor 3 (Homo sapiens, UniProt P22607); conditions: 1 uM
Description: Inhibition of FGFR3 (unknown origin) at 1 uM relative to control

[7] = target: Serine/threonine-protein kinase Chk1 (Homo sapiens, UniProt O14757); assay: Binding affinity to CHK1 (unknown origin)
Focal adhesion kinase 1 [8] = target: T3, Focal adhesion kinase 1 (Homo sapiens, UniProt Q05397); assay: Binding affinity to FAK (unknown origin)
[9] = target: Mast/stem cell growth factor receptor Kit (Homo sapiens, UniProt P10721); conditions: 1 uM
Description: Inhibition of c-KIT (unknown origin) at 1 uM relative to control

NCI-H460 = assay: Antitumor activity against human NCI-H460 cells xenografted in BALB/c nude mouse assessed as tumor growth inhibition at 40 mg/kg/day administered qd measured up to day 21 relative to control; type: functional; conditions: NCI-H460, 504 h, read-out: TGI
[10] = target: T4, Vascular endothelial growth factor receptor 3 (Homo sapiens, UniProt P35916); conditions: 1 uM
Description: Inhibition of VEGFR3 (unknown origin) at 1 uM relative to control

[11] = target: Voltage-gated inwardly rectifying potassium channel KCNH2 (Homo sapiens, UniProt Q12809); assay: Inhibition of human ERG
[12] = target: T5, ALK tyrosine kinase receptor (Homo sapiens, UniProt Q9UM73); conditions: 1 uM
Description: Inhibition of ALK (unknown origin) at 1 uM relative to control

[13] = target: T6, Vascular endothelial growth factor receptor 2 (Homo sapiens, UniProt P35968); assay: Binding affinity to VEGFR2 (unknown origin)
[14] = target: Fibroblast growth factor receptor 1 (Homo sapiens, UniProt P11362); assay: Binding affinity to FGFR1 (unknown origin)
[15] = target: Tyrosine-protein kinase receptor UFO (Homo sapiens) (UniProt P30530); conditions: 1 uM
Description: Inhibition of AXL (unknown origin) at 1 uM relative to control

[16] = Antiproliferative activity against human HK2 cells after 72 hrs by MTT assay; type: cell-based; conditions: HK-2, 72 h
[17] = target: Tyrosine-protein kinase Lck (Homo sapiens, UniProt P06239); conditions: 1 uM
Description: Inhibition of LCK (unknown origin) at 1 uM relative to control

[18] = Antiproliferative activity against human NCI-H3122 cells after 72 hrs by MTT assay; type: functional, cell-based; conditions: NCI-H3122, 72 h
[19] = target: Phosphorylase b kinase gamma catalytic chain, liver/testis isoform (Homo sapiens) (UniProt P15735); assay: Inhibition of PHKgamma2 (unknown origin) at 1 uM relative to control
[20] = target: T7, Vascular endothelial growth factor receptor 1 (Homo sapiens, UniProt P17948); assay: Binding affinity to VEGFR1 (unknown origin)
[21] = target: T8, Protein-tyrosine kinase 2-beta (Homo sapiens, UniProt Q14289); assay: Inhibition of PYK2 (unknown origin) at 1 uM relative to control
[22] = target: Tyrosine-protein kinase receptor UFO (Homo sapiens, UniProt P30530); assay: Binding affinity to AXL (unknown origin)
HT-29 = assay: Antitumor activity against human HT-29 cells xenografted in BALB/c nude mouse assessed as tumor growth inhibition at 80 mg/kg/day administered qd measured up to day 21 relative to control; type: functional; parameters: scale not given: the % may be the effect or the level left
[23] = target: T1, Platelet-derived growth factor receptor beta; assay: Inhibition of PDGFR-beta (unknown origin) at 1 uM relative to control
[24] = target: T5, ALK tyrosine kinase receptor; assay: Binding affinity to ALK (unknown origin)
TT = assay: Antiproliferative activity against human TT cells pretreated for 72 hrs followed by compound-washout measured after 72 hrs by MTT assay; type: functional, cell-based
[25] = target: T2, Fibroblast growth factor receptor 3; assay: Binding affinity to FGFR3 (unknown origin)
[26] = Antiproliferative activity against human Bel7402 cells after 72 hrs by MTT assay; type: functional, cell-based; conditions: Bel-7402, 72 h
[27] = target: T7, Vascular endothelial growth factor receptor 1; assay: Inhibition of VEGFR1 (unknown origin) at 1 uM relative to control
Mus musculus [28] = assay: Toxicity in BALB/c nude mouse xenografted with human HT-29 cells assessed as severe weight loss at 80 mg/kg/day administered qd; type: organism-based; conditions: in vivo
[29] = target: T9, Tyrosine-protein kinase ABL1 (Homo sapiens, UniProt P00519); assay: Binding affinity to ABL (unknown origin)
Mus musculus [30] = assay: Toxicity in BALB/c nude mouse xenografted with human NCI-H460 cells assessed as severe weight loss at 40 mg/kg/day administered qd; type: organism-based; conditions: in vivo
[31] = target: Tyrosine-protein kinase ABL2 (Homo sapiens, UniProt P42684); assay: Binding affinity to ARG (unknown origin)
Focal adhesion kinase 1 [32] = target: T3, Focal adhesion kinase 1; assay: Inhibition of FAK (unknown origin) at 1 uM relative to control
[33] = target: T4, Vascular endothelial growth factor receptor 3; assay: Binding affinity to VEGFR3 (unknown origin)
Mus musculus [34] = assay: Toxicity in BALB/c nude mouse xenografted with human NCI-H460 cells assessed as bloody stool at 40 mg/kg/day administered qd; type: organism-based; conditions: in vivo
[35] = target: Receptor-type tyrosine-protein kinase FLT3 (Homo sapiens, UniProt P36888); assay: Binding affinity to FLT3 (unknown origin)
[36] = target: Phosphorylase b kinase gamma catalytic chain, liver/testis isoform (Homo sapiens, UniProt P15735); assay: Binding affinity to PHKgamma2 (unknown origin)
[37] = target: T9, Tyrosine-protein kinase ABL1; assay: Inhibition of ABL (unknown origin) at 1 uM relative to control
[38] = Antiproliferative activity against human LO2 cells after 72 hrs by MTT assay; type: cell-based; conditions: L02, 72 h
Mus musculus [39] = assay: Toxicity in BALB/c nude mouse xenografted with human NCI-H460 cells assessed as hematuria at 40 mg/kg/day administered qd; type: organism-based; conditions: in vivo
Mus musculus [40] = assay: Toxicity in BALB/c nude mouse xenografted with human HT-29 cells assessed as change in body weight at 80 mg/kg/day administered qd relative to control; type: organism-based; conditions: in vivo
[41] = target: T6, Vascular endothelial growth factor receptor 2; conditions: 1 uM
Description: Inhibition of VEGFR2 (unknown origin) at 1 uM relative to control

Mus musculus [42] = assay: Toxicity in BALB/c nude mouse xenografted with human NCI-H460 cells assessed as change in body weight at 40 mg/kg/day administered qd relative to control; type: organism-based; conditions: in vivo
[43] = target: Tyrosine-protein kinase Fyn (Homo sapiens, UniProt P06241); conditions: 1 uM
Description: Inhibition of FYN (unknown origin) at 1 uM relative to control

[44] = target: T8, Protein-tyrosine kinase 2-beta; assay: Binding affinity to PYK2 (unknown origin)

T7 sequence (P17948 whole entry): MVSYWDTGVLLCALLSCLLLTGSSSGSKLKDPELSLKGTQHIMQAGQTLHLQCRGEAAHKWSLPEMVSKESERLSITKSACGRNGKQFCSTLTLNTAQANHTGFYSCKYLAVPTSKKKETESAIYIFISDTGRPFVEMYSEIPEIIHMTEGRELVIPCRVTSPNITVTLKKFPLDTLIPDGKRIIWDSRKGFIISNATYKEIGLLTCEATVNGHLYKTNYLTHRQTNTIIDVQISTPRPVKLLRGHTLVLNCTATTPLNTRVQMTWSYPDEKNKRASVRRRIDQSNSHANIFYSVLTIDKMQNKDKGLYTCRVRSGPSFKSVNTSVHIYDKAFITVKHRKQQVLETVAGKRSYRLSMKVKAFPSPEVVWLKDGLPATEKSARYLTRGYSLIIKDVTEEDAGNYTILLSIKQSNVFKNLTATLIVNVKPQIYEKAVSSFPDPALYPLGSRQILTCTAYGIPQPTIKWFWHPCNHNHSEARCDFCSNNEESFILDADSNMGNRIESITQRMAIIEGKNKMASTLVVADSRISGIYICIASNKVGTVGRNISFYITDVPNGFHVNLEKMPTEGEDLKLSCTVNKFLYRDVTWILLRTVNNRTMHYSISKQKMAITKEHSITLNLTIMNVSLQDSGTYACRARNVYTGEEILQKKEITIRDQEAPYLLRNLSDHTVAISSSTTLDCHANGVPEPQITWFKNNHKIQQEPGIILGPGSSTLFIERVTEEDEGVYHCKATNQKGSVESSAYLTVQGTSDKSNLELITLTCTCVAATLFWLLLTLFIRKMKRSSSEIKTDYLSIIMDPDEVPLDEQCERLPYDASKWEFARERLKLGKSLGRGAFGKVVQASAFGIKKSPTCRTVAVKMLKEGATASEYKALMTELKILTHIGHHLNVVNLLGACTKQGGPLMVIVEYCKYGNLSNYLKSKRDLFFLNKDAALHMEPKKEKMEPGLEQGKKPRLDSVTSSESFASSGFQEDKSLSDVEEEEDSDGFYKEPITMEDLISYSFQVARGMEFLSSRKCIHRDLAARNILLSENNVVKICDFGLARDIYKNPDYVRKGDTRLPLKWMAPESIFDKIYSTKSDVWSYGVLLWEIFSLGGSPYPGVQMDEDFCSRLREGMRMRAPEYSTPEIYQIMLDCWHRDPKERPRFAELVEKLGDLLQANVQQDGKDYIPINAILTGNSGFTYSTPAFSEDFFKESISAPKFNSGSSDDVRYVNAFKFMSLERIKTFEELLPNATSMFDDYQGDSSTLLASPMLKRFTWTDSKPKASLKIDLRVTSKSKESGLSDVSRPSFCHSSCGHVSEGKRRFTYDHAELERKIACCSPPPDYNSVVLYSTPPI
T9 sequence (P00519 whole entry): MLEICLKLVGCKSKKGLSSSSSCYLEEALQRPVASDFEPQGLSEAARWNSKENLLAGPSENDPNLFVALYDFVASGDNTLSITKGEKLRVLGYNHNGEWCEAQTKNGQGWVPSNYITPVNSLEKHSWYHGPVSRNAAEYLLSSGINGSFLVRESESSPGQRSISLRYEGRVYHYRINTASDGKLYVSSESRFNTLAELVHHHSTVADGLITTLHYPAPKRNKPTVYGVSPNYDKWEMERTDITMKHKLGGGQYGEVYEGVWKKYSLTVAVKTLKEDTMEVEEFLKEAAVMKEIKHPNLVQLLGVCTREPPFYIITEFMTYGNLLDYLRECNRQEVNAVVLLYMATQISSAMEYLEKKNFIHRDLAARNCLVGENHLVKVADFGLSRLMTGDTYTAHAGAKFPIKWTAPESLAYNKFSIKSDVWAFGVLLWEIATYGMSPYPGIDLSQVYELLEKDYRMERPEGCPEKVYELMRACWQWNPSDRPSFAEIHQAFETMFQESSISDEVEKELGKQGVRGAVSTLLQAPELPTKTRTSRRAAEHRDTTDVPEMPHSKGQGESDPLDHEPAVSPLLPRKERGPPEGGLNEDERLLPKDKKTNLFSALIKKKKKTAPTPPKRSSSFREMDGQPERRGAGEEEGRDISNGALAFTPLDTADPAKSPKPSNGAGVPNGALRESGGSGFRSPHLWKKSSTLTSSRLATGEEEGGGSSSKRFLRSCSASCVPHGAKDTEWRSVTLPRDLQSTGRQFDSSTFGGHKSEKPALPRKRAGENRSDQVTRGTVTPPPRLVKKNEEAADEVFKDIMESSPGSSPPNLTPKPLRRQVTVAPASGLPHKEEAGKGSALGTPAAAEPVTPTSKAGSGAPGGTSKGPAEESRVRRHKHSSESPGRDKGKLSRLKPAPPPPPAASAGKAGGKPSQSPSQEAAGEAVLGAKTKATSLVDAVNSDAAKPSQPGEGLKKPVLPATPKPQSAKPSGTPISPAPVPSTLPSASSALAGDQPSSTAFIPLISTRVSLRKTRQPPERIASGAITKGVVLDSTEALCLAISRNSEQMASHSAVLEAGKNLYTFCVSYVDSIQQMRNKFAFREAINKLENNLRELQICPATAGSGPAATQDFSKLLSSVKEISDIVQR
T4 sequence (P35916 whole entry): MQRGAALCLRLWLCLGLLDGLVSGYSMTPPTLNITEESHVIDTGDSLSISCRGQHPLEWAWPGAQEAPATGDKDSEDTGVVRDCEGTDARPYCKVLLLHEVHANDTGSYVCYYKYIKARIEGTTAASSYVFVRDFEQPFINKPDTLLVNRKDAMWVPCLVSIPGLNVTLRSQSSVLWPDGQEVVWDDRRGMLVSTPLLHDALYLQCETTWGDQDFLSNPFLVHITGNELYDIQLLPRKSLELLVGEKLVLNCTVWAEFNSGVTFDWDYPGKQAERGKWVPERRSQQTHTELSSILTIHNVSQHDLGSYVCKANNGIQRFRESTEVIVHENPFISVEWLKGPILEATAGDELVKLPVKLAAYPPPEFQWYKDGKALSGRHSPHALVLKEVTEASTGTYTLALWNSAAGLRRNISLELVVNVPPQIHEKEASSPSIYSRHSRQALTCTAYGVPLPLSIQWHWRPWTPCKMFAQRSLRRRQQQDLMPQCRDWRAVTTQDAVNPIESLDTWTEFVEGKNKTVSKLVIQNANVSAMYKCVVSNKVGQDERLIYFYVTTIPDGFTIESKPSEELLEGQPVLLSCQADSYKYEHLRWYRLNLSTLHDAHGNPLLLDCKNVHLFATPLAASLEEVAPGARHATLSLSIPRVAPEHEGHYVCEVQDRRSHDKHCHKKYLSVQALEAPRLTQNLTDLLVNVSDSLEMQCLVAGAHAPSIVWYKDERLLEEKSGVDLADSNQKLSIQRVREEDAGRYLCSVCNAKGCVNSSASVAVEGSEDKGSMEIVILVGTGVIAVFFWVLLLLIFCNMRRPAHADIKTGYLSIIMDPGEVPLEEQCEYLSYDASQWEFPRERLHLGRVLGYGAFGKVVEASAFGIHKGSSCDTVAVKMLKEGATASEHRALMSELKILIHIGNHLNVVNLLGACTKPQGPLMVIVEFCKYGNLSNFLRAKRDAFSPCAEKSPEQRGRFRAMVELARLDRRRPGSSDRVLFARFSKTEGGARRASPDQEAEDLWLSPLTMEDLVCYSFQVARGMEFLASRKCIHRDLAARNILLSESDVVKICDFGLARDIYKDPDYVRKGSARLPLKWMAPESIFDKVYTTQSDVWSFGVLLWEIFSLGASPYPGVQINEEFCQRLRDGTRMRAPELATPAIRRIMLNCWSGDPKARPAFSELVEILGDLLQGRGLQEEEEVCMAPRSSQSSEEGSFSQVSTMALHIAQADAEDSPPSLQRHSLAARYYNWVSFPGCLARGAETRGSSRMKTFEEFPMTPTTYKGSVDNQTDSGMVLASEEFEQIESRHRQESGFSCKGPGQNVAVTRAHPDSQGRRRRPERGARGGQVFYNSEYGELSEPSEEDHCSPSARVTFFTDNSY
T1 sequence (P09619 whole entry): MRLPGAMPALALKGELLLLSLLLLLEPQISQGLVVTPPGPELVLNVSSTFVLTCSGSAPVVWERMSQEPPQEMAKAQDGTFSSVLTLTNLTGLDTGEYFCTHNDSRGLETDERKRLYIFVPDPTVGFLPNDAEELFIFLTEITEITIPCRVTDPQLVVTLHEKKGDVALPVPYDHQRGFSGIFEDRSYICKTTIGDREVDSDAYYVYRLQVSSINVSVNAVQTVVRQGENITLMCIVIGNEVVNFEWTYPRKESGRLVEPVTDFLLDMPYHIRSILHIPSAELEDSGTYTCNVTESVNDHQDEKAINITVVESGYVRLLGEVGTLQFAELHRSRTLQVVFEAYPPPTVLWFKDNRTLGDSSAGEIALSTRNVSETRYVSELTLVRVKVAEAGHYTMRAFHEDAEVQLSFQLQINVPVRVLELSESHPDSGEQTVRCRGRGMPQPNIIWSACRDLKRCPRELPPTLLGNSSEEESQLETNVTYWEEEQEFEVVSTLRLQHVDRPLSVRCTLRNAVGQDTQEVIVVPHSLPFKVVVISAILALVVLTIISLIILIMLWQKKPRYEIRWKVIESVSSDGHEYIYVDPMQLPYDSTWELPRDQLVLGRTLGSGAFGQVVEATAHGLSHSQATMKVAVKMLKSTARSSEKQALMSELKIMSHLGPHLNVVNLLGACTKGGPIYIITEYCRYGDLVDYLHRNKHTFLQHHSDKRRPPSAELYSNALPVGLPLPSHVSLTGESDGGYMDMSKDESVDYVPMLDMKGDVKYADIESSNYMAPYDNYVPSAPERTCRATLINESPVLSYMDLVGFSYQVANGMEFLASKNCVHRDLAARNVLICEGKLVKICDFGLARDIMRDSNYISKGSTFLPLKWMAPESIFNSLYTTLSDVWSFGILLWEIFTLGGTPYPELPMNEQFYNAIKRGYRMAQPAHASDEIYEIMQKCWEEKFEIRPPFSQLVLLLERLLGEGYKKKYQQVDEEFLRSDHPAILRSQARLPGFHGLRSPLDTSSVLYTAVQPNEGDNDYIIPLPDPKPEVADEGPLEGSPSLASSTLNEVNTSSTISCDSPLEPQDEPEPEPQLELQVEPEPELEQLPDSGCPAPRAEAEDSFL

inhibition [1]: 76% | Ki [2]: 19 nM | inhibition [3]: 100% | Ki [5]: 230 nM | inhibition [6]: 91% | Ki [7]: 110 nM | Ki (Focal adhesion kinase 1 [8]): 530 nM | inhibition [9]: 87% | inhibition [10]: 99% | inhibition [12]: 87% | Ki [13]: 3.8 nM | Ki [14]: 350 nM | inhibition [15]: 95% | inhibition [17]: 44% | inhibition [19]: 51% | Ki [20]: 1100 nM | inhibition [21]: 72% | Ki [22]: 63 nM | inhibition [23]: 79% | Ki [24]: 95 nM | Ki [25]: 89 nM | inhibition [27]: 52% | Ki [29]: 120 nM | Ki [31]: 180 nM | inhibition (Focal adhesion kinase 1 [32]): 66% | Ki [33]: < 0.3 nM | Ki [35]: < 0.3 nM | Ki [36]: 840 nM | inhibition [37]: 93% | inhibition [41]: 99% | inhibition [43]: 44% | Ki [44]: 340 nM
SMILES: Cc1[nH]c(/C=C2\C(=O)Nc3ccc(F)cc32)c(C)c1NC(=O)CCN1CCN(C)CC1
Activity (Mus musculus [4]): Non-toxic | inhibition in vivo at 40 mg/kg/day (NCI-H460): 60.6% | IC50 [11]: 18800 nM | IC50 [16]: 6850 nM | IC50 [18]: 17100 nM | Activity (HT-29): 84.7% | IC50 (TT): 70 nM | IC50 [26]: 14700 nM | Activity (Mus musculus [28]): Non-toxic | Activity (Mus musculus [30]): Non-toxic | Activity (Mus musculus [34]): Non-toxic | IC50 [38]: 41400 nM | Activity (Mus musculus [39]): Non-toxic | Activity (Mus musculus [40]): 6.2% | Activity (Mus musculus [42]): 1.4%
